Measurements as given in PubChem BioAssay (NCI).
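1) Cells in 96-well plates. 2) Compound, 48 h, 5 concentrations. 3) Linear interpolation between surrounding doses. 4) Unreached endpoint = highest concentration. The concentration for full growth arrest is given as TGI.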

Tests used:
Assay in all cases: inhibition of tumour cell growth, NCI panel, 48 h
786-0 renal = tested on: 786-0 renal
COLO 205 colon = tested on: COLO 205 colon
DU-145 prostate = tested on: DU-145 prostate
KM12 colon = tested on: KM12 colon
NCI-H226 lung = tested on: NCI-H226 lung
U251 CNS = tested on: U251 CNS
EKVX NSCLC = tested on: EKVX NSCLC
OVCAR-5 ovarian = tested on: OVCAR-5 ovarian
NCI-H460 lung = tested on: NCI-H460 lung
UACC-62 melanoma = tested on: UACC-62 melanoma
HL-60(TB) leukemia = tested on: HL-60(TB) leukemia
HT29 colon = tested on: HT29 colon
OVCAR-8 ovarian = tested on: OVCAR-8 ovarian
ACHN renal = tested on: ACHN renal
SNB-75 CNS = tested on: SNB-75 CNS
TK-10 renal = tested on: TK-10 renal
SN12C renal = tested on: SN12C renal
K-562 leukemia = tested on: K-562 leukemia
OVCAR-4 ovarian = tested on: OVCAR-4 ovarian
T-47D breast = tested on: T-47D breast
SF-539 CNS = tested on: SF-539 CNS
NCI-H23 lung = tested on: NCI-H23 lung
SW-620 colon = tested on: SW-620 colon
RXF 393 renal = tested on: RXF 393 renal
MDA-MB-231 breast = tested on: MDA-MB-231 breast
NCI/ADR-RES ovarian = tested on: NCI/ADR-RES ovarian
UACC-257 melanoma = tested on: UACC-257 melanoma
CCRF-CEM leukemia = tested on: CCRF-CEM leukemia
HCT-116 colon = tested on: HCT-116 colon
IGROV1 ovarian = tested on: IGROV1 ovarian
SK-MEL-5 melanoma = tested on: SK-MEL-5 melanoma
MDA-MB-435 = tested on: MDA-MB-435
M14 melanoma = tested on: M14 melanoma
SNB-19 CNS = tested on: SNB-19 CNS
MALME-3M melanoma = tested on: MALME-3M melanoma
MOLT-4 leukemia = tested on: MOLT-4 leukemia
SK-OV-3 ovarian = tested on: SK-OV-3 ovarian
HS 578T breast = tested on: HS 578T breast
SR leukemia = tested on: SR leukemia
SK-MEL-28 melanoma = tested on: SK-MEL-28 melanoma
HOP-92 NSCLC = tested on: HOP-92 NSCLC
HCC-2998 colon = tested on: HCC-2998 colon
MCF7 breast = tested on: MCF7 breast
A549 NSCLC = tested on: A549 NSCLC
HOP-62 NSCLC = tested on: HOP-62 NSCLC
LOX IMVI melanoma = tested on: LOX IMVI melanoma
HCT-15 colon = tested on: HCT-15 colon
UO-31 renal = tested on: UO-31 renal
A498 renal = tested on: A498 renal
SF-268 CNS = tested on: SF-268 CNS
SF-295 CNS = tested on: SF-295 CNS
RPMI-8226 leukemia = tested on: RPMI-8226 leukemia

Measured: TGI

O=c1cc(CC(O)(C(F)(F)Cl)C(F)(F)Cl)[nH]n1-c1ccccc1
> 100 µM: all assays above
